From patent US20180282323A1, “Mesoionic imidazole derivatives as insecticides” (BAYER CROPSCIENCE AKTIENGESELLSCHAFT, priority 2015, published 2018)
Read-outs that look alike come from different tables or passages of the source.

What was measured:
Myzus persicae = Myzus persicae oral test; assay type: in vivo; settings: application rate 20 ppm, oral uptake through parafilm, after 5 days; for pest or weed control at 20 ppm: Myzus persicae, 120 h, read-out: efficacy
Experimental: Myzus persicae—Oral Test Solvent: 100 parts by weight of acetone
To produce an appropriate active ingredient formulation, 1 part by weight of active ingredient is dissolved with the stated parts by weight of solvent and made up with water until the desired concentration is attained.
50 μl of the active ingredient formulation are transferred into microtitre plates and made up to a final volume of 200 μl with 150 μl of IPL41 insect medium (33%+15% sugar). Subsequently, the plates are sealed with parafilm, which a mixed population of green peach aphids (Myzus persicae) within a second microtitre plate is able to puncture and imbibe the solution through it.
After 5 days, the efficacy in % is determined. 100% means that all the aphids have been killed; 0% means that no aphids have been killed.

[1] = log P by HPLC on reversed-phase column (EEC directive 79/831 Annex V.A8); assay type: physicochemical; settings: for log p a): HPLC on reversed-phase column
Experimental: a) The determination of the [M+H]^+ by LC-MS in the acidic range was effected at pH 2.7, with acetonitrile (containing 0.1% formic acid) and water as eluents; linear gradient from 10% acetonitrile to 95% acetonitrile, instrument: Agilent 1100 LC system, Agilent MSD system, HTS PAL.
The log P values reported in the tables and preparation examples above were determined in accordance with EEC directive 79/831 Annex V.A8 by HPLC (High Performance Liquid Chromatography) using a reversed-phase column (C18). Temperature 43° C.

[2] = HPLC on reversed-phase column (footnote a)
[3] = reversed-phase C18 HPLC column, pH 2.7, HPLC on reversed-phase column (footnote a), read-out: log p
[4] = reversed-phase C18 HPLC column, HPLC-MS, reversed-phase C18, 43° C., calibration with alkan-2-ones, read-out: log P

SMILES | log p a) [1] | log p [1, 2] | efficacy (Myzus persicae) [%] | other results
Cc1ccc[n+]2c(C(=O)NC3CC3)c([O-])n(C(C)c3ccc(Cl)nc3)c12 (racemic) [Example I-1-257] | 1.52 |  | 100 | 
Cc1ccc[n+]2c(C(=O)NC3CC3)c([O-])n(C(C)c3ccc(Cl)nc3)c12 (racemic) [Example I-1-259] | 1.96 |  | 90 | 
O=C(CCl)c1c([O-])n(Cc2ccc(Cl)nc2)c2cccc[n+]12 [Example I-1-001] |  | 1.62 | 100 | 
O=C(COc1cccnc1)c1c([O-])n(Cc2ccc(Cl)nc2)c2cccc[n+]12 [Example I-1-006] |  | 0.93 | 100 | 
O=C(COc1ccc(F)cc1)c1c([O-])n(Cc2ccc(Cl)nc2)c2cccc[n+]12 [Example I-1-031] |  | 2.27 | 100 | 
C[S+]([O-])CC(=O)c1c([O-])n(Cc2cnc(Cl)s2)c2cccc[n+]12 (stereo not shown) [Example I-1-039] |  | 1.08 | 100 | 
CCN(CC(=O)c1c([O-])n(Cc2cnc(Cl)s2)c2cccc[n+]12)C(C)=O [Example I-1-040, 3-(N-Acetyl-N-ethylglycyl)-1-[(2-chloro-1,3-thiazol-5-yl)methyl]-1H-imidazo[1,2-a]pyridin-4-ium-2-olate] |  |  |  | pest or weed control at 20 ppm (Myzus persicae): 100%; chromatographic logP [1, 3]: 1.49; chromatographic logP [1, 4]: 1.49
CCS(=O)(=O)CC(=O)c1c([O-])n(Cc2cnc(Cl)s2)c2cccc[n+]12 [Example I-1-042, 1-[(2-chloro-1,3-thiazol-5-yl)methyl]-3-[(ethylsulphonyl)acetyl]-1H-imidazo[1,2-a]pyridin-4-ium-2-olate] |  |  |  | pest or weed control at 20 ppm (Myzus persicae): 100%; chromatographic logP [1, 3]: 1.38; chromatographic logP [1, 4]: 1.38
O=C(CNCc1ccccc1)c1c([O-])n(Cc2cnc(Cl)s2)c2cccc[n+]12 [Example I-1-053] |  | 1 | 90 | 
O=C(Cn1ccc(C(F)(F)F)n1)c1c([O-])n(Cc2cnc(Cl)s2)c2cccc[n+]12 [Example I-1-057] |  | 2.44 | 90 | 
N#Cc1cnn(CC(=O)c2c([O-])n(Cc3ccc(Cl)nc3)c3cccc[n+]23)c1 [Example I-1-060] |  | 1.55 | 100 | 
CCN(CC(=O)c1c([O-])n(Cc2ccc(Cl)nc2)c2cccc[n+]12)C(C)=O [Example I-1-071] |  | 1.4 | 90 | 
COC(=O)COCC(=O)c1c([O-])n(Cc2cnc(Cl)s2)c2cccc[n+]12 [Example I-1-075] |  | 1.41 | 100 | 
CSCC(=O)c1c([O-])n(Cc2cncnc2)c2cccc[n+]12 [Example I-1-077] |  | 0.79 | 100 | 
CCOCC(=O)c1c([O-])n(Cc2ccc(Cl)nc2)c2cc(C(F)(F)F)cc[n+]12 [Example I-1-079] |  | 2.17 | 90 | 
Cc1ccc2n(Cc3ccc(Cl)nc3)c([O-])c(C(=O)CCl)[n+]2c1 [Example I-1-091] |  | 1.87 | 100 | 
Cc1cccc2n(Cc3ccc(Cl)nc3)c([O-])c(C(=O)CCl)[n+]12 [Example I-1-098] |  | 1.74 | 100 | 
Cc1cccc2n(Cc3ccc(Cl)nc3)c([O-])c(C(=O)Cn3cccn3)[n+]12 [Example I-1-103] |  | 1.47 | 100 | 
O=C(CCl)c1c([O-])n(Cc2cnc(Cl)s2)c2ccc(Cl)c[n+]12 [Example I-1-108] |  | 2.2 | 100 | 
COCC(=O)c1c([O-])n(Cc2cncc(Cl)c2)c2cccc[n+]12 [Example I-1-109] |  | 1.15 | 100 | 
O=C(CCl)c1c([O-])n(Cc2ccc(Cl)nc2)c2c(F)cc(F)c[n+]12 [Example I-1-110] |  | 1.96 | 100 | 
O=C(Nc1nccs1)c1c([O-])n(Cc2ccc(Cl)nc2)c2cccc[n+]12 [Example I-1-324] | 1.93 |  |  | 
Cc1cnc(NC(=O)c2c([O-])n(Cc3ccc(Cl)nc3)c3cccc[n+]23)s1 [Example I-1-327] | 2.17 |  |  | 
COc1cc(NC(=O)c2c([O-])n(Cc3ccc(Cl)nc3)c3cccc[n+]23)ccn1 [Example I-1-329] | 1.41 |  |  | 
Clc1ccc(CNc2ncccn2)cn1 [N-[(6-chloropyridin-3-yl)methyl]pyrimidin-2-amine] |  |  |  | chromatographic logP [1]: 1.36

More lines, main results first:

log p a) [1] | log p [1, 2] | SMILES | efficacy (Myzus persicae) [%] | other results
2.67 |  | Cc1ccc[n+]2c(C(=O)Nc3c(F)cccc3F)c([O-])n(C(C)c3ccc(Cl)nc3)c12 (racemic) [Example I-1-275] | 100 | 
 | 2.03 | O=C(Cn1ccc(Cl)n1)c1c([O-])n(Cc2cnc(Cl)s2)c2cccc[n+]12 [Example I-1-011] | 100 | 
 | 1 | O=C(COc1cccnc1)c1c([O-])n(Cc2cnc(Cl)s2)c2cccc[n+]12 [Example I-1-018] | 100 | 
 | 2.67 | O=C(CSc1ccccc1)c1c([O-])n(Cc2cnc(Cl)s2)c2cccc[n+]12 [Example I-1-025] | 100 | 
 | 1.72 | O=C(C[S+]([O-])Cc1ccccc1)c1c([O-])n(Cc2cnc(Cl)s2)c2cccc[n+]12 (stereo not shown) [Example I-1-035] | 100 | 
 | 1.32 | CC(C)[S+]([O-])CC(=O)c1c([O-])n(Cc2cnc(Cl)s2)c2cccc[n+]12 (stereo not shown) [Example I-1-038] | 100 | 
 | 1.83 | N#Cc1ccn(CC(=O)c2c([O-])n(Cc3cnc(Cl)s3)c3cccc[n+]23)n1 [Example I-1-047] | 100 | 
 | 2 | O=C(Cn1cnc(C(F)(F)F)c1)c1c([O-])n(Cc2cnc(Cl)s2)c2cccc[n+]12 [Example I-1-051] | 100 | 
 | 1.94 | CSc1ccn(CC(=O)c2c([O-])n(Cc3cnc(Cl)s3)c3cccc[n+]23)n1 [Example I-1-052] | 100 | 
 | 2.41 | O=C(COCc1ccc(F)cc1)c1c([O-])n(Cc2cnc(Cl)s2)c2cccc[n+]12 [Example I-1-055] | 100 | 
 | 1.44 | O=C(COCc1ccccc1)c1c([O-])n(Cc2cncnc2)c2cccc[n+]12 [Example I-1-059] | 100 | 
 | 1.18 | O=C(Cn1ccnn1)c1c([O-])n(Cc2cnc(Cl)s2)c2cccc[n+]12 [Example I-1-064] | 100 | 
 | 0.73 | N#Cc1cnn(CC(=O)c2c([O-])n(Cc3cncnc3)c3cccc[n+]23)c1 [Example I-1-065] | 100 | 
 | 0.56 | O=C(Cn1cccn1)c1c([O-])n(Cc2cncnc2)c2cccc[n+]12 [Example I-1-066] | 90 | 
 | 2.77 | O=C(COc1ccccc1Cl)c1c([O-])n(Cc2cnc(Cl)s2)c2cccc[n+]12 [Example I-1-078] | 90 | 
 | 2.17 | O=C(COc1ccc(Cl)nc1)c1c([O-])n(Cc2cnc(Cl)s2)c2cccc[n+]12 [Example I-1-084] | 100 | 
 | 1.32 | O=C(COc1ccccn1)c1c([O-])n(Cc2cnc(Cl)s2)c2cccc[n+]12 [Example I-1-088] | 100 | 
 | 1.31 | Cc1ccc[n+]2c(C(=O)Cn3cncn3)c([O-])n(Cc3cnc(Cl)s3)c12 [Example I-1-096] | 100 | 
 | 2.41 | CCCOCC(=O)c1c([O-])n(Cc2cnc(Cl)s2)c2ccc(Cl)c[n+]12 [Example I-1-117] | 100 | 
2.05 |  | O=C(Nc1nccs1)c1c([O-])n(Cc2cnc(Cl)s2)c2cccc[n+]12 [Example I-1-318] |  | 
1.91 |  | O=C(Nc1ncccc1[N+](=O)[O-])c1c([O-])n(Cc2cnc(Cl)s2)c2cccc[n+]12 [Example I-1-320] |  | 
3.1 |  | Cc1cccc(F)c1NC(=O)c1c([O-])n(Cc2cnc(Cl)s2)c2cccc[n+]12 [Example I-1-322] |  | 
1.6 |  | Cn1nccc1NC(=O)c1c([O-])n(Cc2cnc(Cl)s2)c2cccc[n+]12 [Example I-1-330] |  | 
2.17 |  | O=C(Nc1c(Cl)ncnc1Cl)c1c([O-])n(Cc2cnc(Cl)s2)c2cccc[n+]12 [Example I-1-331] |  | 
1.99 |  | Cn1ncc(Br)c1NC(=O)c1c([O-])n(Cc2cnc(Cl)s2)c2cccc[n+]12 [Example I-1-332] |  | 
1.81 |  | O=C(Nc1cnccc1Cl)c1c([O-])n(Cc2cnc(Cl)s2)c2cccc[n+]12 [Example I-1-334] |  | 
1.58 |  | O=C(Nc1ncccc1Br)c1c([O-])n(Cc2cnc(Cl)s2)c2cccc[n+]12 [Example I-1-335] |  | 
1.99 |  | O=C(Nc1ncccc1C(F)(F)F)c1c([O-])n(Cc2cnc(Cl)s2)c2cccc[n+]12 [Example I-1-336] |  | 
0.91 |  | Cc1cccnc1NC(=O)c1c([O-])n(Cc2cnc(Cl)s2)c2cccc[n+]12 [Example I-1-337] |  | 
1.98 |  | O=C(Nc1ncns1)c1c([O-])n(Cc2cnc(Cl)s2)c2cccc[n+]12 [Example I-1-338] |  | 
